Experimental data reported in patent publication US20150011463A1, “AGENT FOR PREVENTING OR AM[…] ENDOTHELIAL MALFUNCTION” (KYOWA HAKKO BIO CO., LTD., priority 2012, published 2015).

System: normal human umbilical vein endothelial cell (HUVEC)
Assay: NO production (nitrite in culture supernatant by HPLC) in HUVEC
Assay type: cell-based
Details: citrulline final concentration 0.3 mM, 24-hour culture, vs control (PBS)
Experimental: The cells were cultured in at 37° C., in 5% CO2 incubator, and used for experiment after 4 to 6 passages. Citrulline and reduced glutathione were obtained from Kyowa Hakko Bio.
A cell suspension (0.45 mL) with the adjusted initial cell concentration of 5×10^5 cells/mL was inoculated in a 24-well plate (IWAKI). After 40-hour culture, the media were replaced with those containing citrulline (final concentration 0.3 mM: citrulline group), reduced glutathione (final concentration 1 mM: high-dose glutathione group), and a citrulline and reduced glutathione mixture (citrulline final concentration 0.3 mM; glutathione final concentration 0.3 mM: citrulline+low-dose glutathione group). Media with the sole addition of solvent (PBS) were used as a control group. After 24-hour culture, the cell culture (100 μL) was centrifuged at 12,000 rpm for 10 minutes, and the concentration of nitrite (NO2), which is the stable NO metabolite, in culture supernatant was quantified by HPLC (ENO-20, EICOM).

For `NC(=O)NCCC[C@H](N)C(=O)O` [citrulline], the “effect on NO production (concentration of nitrite (NO2) in culture supernatant)” value was “no effect”.
